The target of test [1] is T1, 5 alpha reductase, type II (Homo sapiens, UniProt P31213).
T1 construct: made in house; host or cells: genetically modified yeast
T1 sequence (P31213 1-254): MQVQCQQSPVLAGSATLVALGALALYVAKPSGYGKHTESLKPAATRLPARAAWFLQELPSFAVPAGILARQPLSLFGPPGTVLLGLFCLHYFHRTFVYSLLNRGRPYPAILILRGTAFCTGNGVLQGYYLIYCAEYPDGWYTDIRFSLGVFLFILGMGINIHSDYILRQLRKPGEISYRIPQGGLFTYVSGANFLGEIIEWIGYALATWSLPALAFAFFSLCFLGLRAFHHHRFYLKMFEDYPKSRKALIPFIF
The experiment in a line: Type II 5 alpha reductase inhibition ([14C] testosterone conversion). It is filed as biochemical. An excerpt: Determination of the 5 alpha reductase inhibitory activities by Ajuga reptans extracts in comparison to Serenoa repens extracts. Said determination has been performed using enzymes (5 alpha reductase, type I and type II) produced by genetically modified yeast. Enzyme activities have been determined in the presence of Ajuga reptans extracts, teupolioside, isoteupolioside and Serenoa repens extracts.
Determination of the type II 5 alpha reductase activity has been performed in an analogous manner to that just described, with the exception of a different pH value for the 0.1 M Tris-citrate buffer (pH 5.0).
In both assays, the steroids have been extracted using 5 ml of methylene chloride. The extracts have then been dried under a stream of nitrogen and the dried residues obtained have been dissolved in 20 μl of a chloroform-methanol mixture (2:1 v/v). An aliquot of said mixture has been deposited on the surface of a silica gel TLC plate. […] For quantification of the results, the spots have been scraped from the TLC plate and extracted with 2 ml of ethyl acetate. The extracts obtained have been analysed, using scintillation fluid, with the aid of a Wallach β-counter. The enzyme activity has been calculated from the percentage conversion (C %) of the substrate into final product: C%=[counted product/(counted substrate+product)]×100.

Test [2] in a line: Hydroxyl radical scavenger activity (Fenton reaction, luminol chemiluminescence). It is filed as biochemical. From the text: (§1) Ajuga reptans Extracts 1 and 2, prepared as described in examples 1 and 2, and isoteupolioside have been used to assess in vitro antioxidant action with specific oxygen radical generating systems such as the superoxide anion (O2^−), the hydroxyl radical (HO^−), the peroxynitrite radical (ONOO^−) and the inhibition of lipid peroxidation. The superoxide anion has been measured by a chemiluminescent assay based on the hypoxanthine (HPX)/xanthine oxidase (XOD) reaction using the Lumimax Superoxide Anion Detection Kit (Stratagene, La Jolla, Calif., USA) and following the manufacturer's instructions. Hydroxyl radical scavenger activity has been measured by means of the Fenton reaction for the production of hydroxyl radicals and chemiluminescent dosage (using a Victor^3 chemiluminometer, Wallac, Finland) with luminol. Peroxynitrite ions have been determined by means of dosage with a spontaneous generator of peroxynitrites (3-morpholinosidnonimine hydrochloride; SIN-1) and a stable reagent for the nitroxyl ions (2-(4-carboxyphenyl)-4,4,5,5-tetramethylimidazoline-1-oxyl-3-oxide potassium salt PTIO spin trap) then dosed by means of electron spin resonance (ESR) using a Nippon Denshi JES-FR30. Lipid peroxidation has been generated using Fe^2+ induced-oxygen reactive species, and detected using thiobarbituric acid in accordance with Buege, J A & Aust, S D: Microsomal lipid peroxidation (Methods Enzymol.
The Extract 1 and the Extract 2 set forth in Table 4 are derived from Ajuga reptans cell cultures comprising the phenylpropanoids at 90% and 54%, respectively. The results are expressed as the concentration inhibiting 50% of activity (IC50), means of 6 independent assays.

A short description of test [3]: Metal chelation, spectrophotometric (Fe2+). It is filed as physicochemical. An excerpt:
(§2) The chelating activities of Ajuga reptans extracts in relation to Fe^2+, Fe^3+, Cu^2+ and Ni^2+ metal ions has been determined by means of spectrophotometric measurements using a Shimadzu 1770 UV spectrophotometer. The activities of chelating agents depends on the association constant (equilibrium) of their reactions with the metals according to the following reaction:
(§3) [formula] wherein Keq is the equilibrium constant equal to the ratio of concentrations at equilibrium of a complex and a product of equilibrium concentrations of metal ions and a chelator:
(§4) The method used for determining chelating activities is well documented in the literature (Korkina L G, Afarras'er I B. Antioxidant and chelating properties of flavonoids. Adv. Pharmacol., 1997, 38:151-63). The results are expressed as Keq (M^−1) calculated for a pure phenylpropanoid. This way the chelating activity against ferrous (Fe II), ferric (Fe III), copper (Cu II) and nickel ions has been calculated.

A short description of test [4]: Metal chelation, spectrophotometric (Fe3+). It is filed as physicochemical.
From the text: as §2, §3, §4

Test [5] concerns 3T3 fibroblasts. The experiment in a line: BSO-induced oxidative death of 3T3 fibroblasts (MTT). The class given is cell-based, BALB/c mouse. Conditions: 20 μM; BSO 200 μM, 24 hours.
Test [6] can be described thus: Superoxide anion chemiluminescent assay (hypoxanthine/xanthine oxidase, Lumimax kit). It is filed as biochemical. Particulars: means of 6 independent assays.
From the text: as §1, with “The” for “Ajuga reptans Extracts 1 and 2, prepared as described in examples 1 and 2, and isoteupolioside have been used to assess in vitro antioxidant action with specific oxygen radical generating systems such as the superoxide anion (O2^−), the hydroxyl radical (HO^−), the peroxynitrite radical (ONOO^−) and the inhibition of lipid peroxidation. The”
The results are expressed as the concentration inhibiting 50% of activity (IC50), means of 6 independent assays.

The mark [7] stands for this setting: calculated for a pure phenylpropanoid.

The values that follow come from patent publication US9623063B2, “Extracts from Ajuga reptans cell lines, their preparation and use” (I.R.B. ISTITUTO DI RICERCHE BIOTECNOLOGICHE S.r.l., priority 2005, dated 2017).

Read-outs that look alike come from different tables or passages of the source.

In turn, `CC1OC(OC2C(O)C(COC(=O)C=Cc3ccc(O)c(O)c3)OC(OCCc3ccc(O)c(O)c3)C2O)C(OC2OC(CO)C(O)C(O)C2O)C(O)C1O` (stereo not shown) [Isoteupolioside, isoteupolioside] showed a concentration for half-maximal inhibition (IC50) in test [1] of 33 µM. In test [2], the “Hydroxyl radial (IC50)” value was determined as 1.04 µg/mL. The “Fe^2+ (Keq, M^−1)” value in test [3] came out at 340000 ± 10000 M⁻¹. The “Fe^3+ (Keq, M^−1)” value in test [4] was found to be 420000 ± 110000 M⁻¹.

On to `C[C@@H]1O[C@@H](O[C@@H]2[C@@H](O)[C@H](OCCc3ccc(O)c(O)c3)O[C@H](CO)[C@H]2OC(=O)/C=C/c2ccc(O)c(O)c2)[C@H](O[C@@H]2O[C@H](CO)[C@H](O)[C@H](O)[C@H]2O)[C@H](O)[C@H]1O` [Teupolioside, teupolioside], for which the half-maximal inhibitory concentration (IC50) in test [1] (second column of Table 9, pH 5.0, 5 μM testosterone, read-out: Type II 5 alpha reductase inhibition (IC50) (converted)) is 30.5 µM. The “Hydroxyl radial (IC50)” value in test [2] (means of 6 independent assays) was 1.6 µg/mL. For the same compound, the “Fe^2+ (Keq, M^−1)” value in test [3] (setting [7]) was 350000 ± 20000 M⁻¹. In addition, in test [4] (setting [7]), the “Fe^3+ (Keq, M^−1)” value is 430000 ± 90000 M⁻¹. In addition, the “% survived cells” value in test [5] was found to be 75.5%. The “Superoxide radical (IC50)” value in test [6] worked out at 1 µg/mL.
